The source of these data is patent US20240083886A1, “HETEROCYCLIC GLP-1 AGONISTS” (Gasherbrum Bio, Inc., priority 2020, published 2024).

The term pEC50 denotes −log10 of the EC50, conventionally taken in molar units.

pEC50: −log10 of the molar value.

GLP-1 Receptor, sequence (P43220 24-463, species assumed): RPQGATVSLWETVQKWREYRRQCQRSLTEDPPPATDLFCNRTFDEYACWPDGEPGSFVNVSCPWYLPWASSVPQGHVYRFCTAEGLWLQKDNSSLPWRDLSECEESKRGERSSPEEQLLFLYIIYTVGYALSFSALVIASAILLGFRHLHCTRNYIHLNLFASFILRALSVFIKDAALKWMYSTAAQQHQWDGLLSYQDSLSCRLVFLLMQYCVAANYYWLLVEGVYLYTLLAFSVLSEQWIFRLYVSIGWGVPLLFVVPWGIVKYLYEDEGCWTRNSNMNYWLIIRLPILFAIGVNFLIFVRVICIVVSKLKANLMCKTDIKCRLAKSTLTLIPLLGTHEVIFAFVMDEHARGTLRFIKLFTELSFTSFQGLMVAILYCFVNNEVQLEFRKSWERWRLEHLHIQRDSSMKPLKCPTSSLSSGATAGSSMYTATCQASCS

The first assay concerns the target GLP-1 Receptor (Homo sapiens, UniProt P43220). As to the kind of experiment: GLP-1R agonist cAMP stimulation assay.
Details: not given
The class given is cell-based. The procedure, abridged: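 HEK293/CRE-Luc cells stably expressing GLP-1R, 1000 cells/well in DPBS with 0.5 mM IBMX and 0.1% BSA, exposed to ½-log compound dilutions 30 min at 37 °C. cAMP measured by HTRF (665/615 nm) after 1 h at room temperature. % activity normalised between vehicle and MAX controls.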
`COCc1nnc(-c2cc3nc(CN4CCC(Oc5cccc(Cc6ccc(Cl)cc6F)n5)CC4)n(C[C@@H]4CCO4)c3cn2)[nH]1` [Compound 183a, 2-[(4-chloro-2-fluorophenyl)methyl]-6-{[1-({6-[5-(methoxymethyl)-4H-1,2,4-triazol-3-yl]-3-{[(2S)-oxetan-2-yl]methyl}-3H-imidazo[4,5-c]pyridin-2-yl}methyl)piperidin-4-yl]oxy}pyridine] had a pEC50 of 8.48.
Molecule `N#Cc1nnc(-c2cc3nc(CN4CCC(Oc5nc(Cc6ccc(Cl)cc6F)ncc5F)CC4)n(C[C@@H]4CCO4)c3cn2)[nH]1` [Compound 193a, 5-(2-{[4-({2-[(4-chloro-2-fluorophenyl)methyl]-5-fluoropyrimidin-4-yl}oxy)piperidin-1-yl]methyl}-3-{[(2S)-oxetan-2-yl]methyl}-3H-imidazo[4,5-c]pyridin-6-yl)-4H-1,2,4-triazole-3-carbonitrile] had a pEC50 of 10.62.

The same assay, now with this note: HEK293/GLP1R/CRE-LUC cells, cAMP dynamic 2 Kit (Cisbio), 30 min incubation at 37° C.; read-out: EC50.
As for `Fc1cnc(Cc2ccc(Cl)cc2)nc1O[C@H]1CC[C@H](Cc2nc3cc(-c4nnc(C(F)(F)F)[nH]4)ccc3n2C[C@@H]2CCO2)CC1` [Compound 173a, 1-{[(2S)-oxetan-2-yl]methyl}-2-{[(1r,4r)-4-({2-[(4-chlorophenyl)methyl]-5-fluoropyrimidin-4-yl}oxy)cyclohexyl]methyl}-5-[5-(trifluoromethyl)-4H-1,2,4-triazol-3-yl]-1H-1,3-benzodiazole], the pEC50 is 9.09.
Take `Fc1cc(Cl)ccc1COc1cccc(N[C@@H]2CCN(Cc3nc4cc(-c5nnc(C(F)(F)F)[nH]5)ncc4n3C[C@@H]3CCO3)C2)n1` [Compound 174a, 6-[(4-chloro-2-fluorophenyl)methoxy]-N-[(3R)-1-[(3-{[(2S)-oxetan-2-yl]methyl}-6-[5-(trifluoromethyl)-4H-1,2,4-triazol-3-yl]-3H-imidazo[4,5-c]pyridin-2-yl)methyl]pyrrolidin-3-yl]pyridin-2-amine]: the pEC50 was 8.47.
On the same count and under the same terms, the value for `Fc1cc(Cl)ccc1Cc1ncc(F)c(OC2CCN(Cc3nc4cc(-c5nnn[nH]5)ncc4n3C[C@@H]3CCO3)CC2)n1` [Compound 175a, 2-[(4-chloro-2-fluorophenyl)methyl]-5-fluoro-4-({1-[(3-{[(2S)-oxetan-2-yl]methyl}-6-(1H-1,2,3,4-tetrazol-5-yl)-3H-imidazo[4,5-c]pyridin-2-yl)methyl]piperidin-4-yl}oxy)pyrimidine] was 9.77; that for `Fc1cc(Cl)ccc1Cc1cccc(OC2CCN(Cc3nc4cc(-c5nnn[nH]5)ncc4n3C[C@@H]3CCO3)CC2)n1` [Compound 176a, 2-[(4-chloro-2-fluorophenyl)methyl]-6-({1-[(3-{[(2S)-oxetan-2-yl]methyl}-6-(1H-1,2,3,4-tetrazol-5-yl)-3H-imidazo[4,5-c]pyridin-2-yl)methyl]piperidin-4-yl}oxy)pyridine] was 9.70; that for `Fc1cc(Cl)ccc1Cc1nccc(OC2CCN(Cc3nc4cc(-c5nnn[nH]5)ncc4n3C[C@@H]3CCO3)CC2)n1` [Compound 177a, 2-[(4-chloro-2-fluorophenyl)methyl]-4-({1-[(3-{[(2S)-oxetan-2-yl]methyl}-6-(1H-1,2,3,4-tetrazol-5-yl)-3H-imidazo[4,5-c]pyridin-2-yl)methyl]piperidin-4-yl}oxy)pyrimidine] was 9.89.
For `N#CC1(Cn2c(CN3CCC(Oc4nc(Cc5ccc(Cl)cc5)ncc4F)CC3)nc3cc(-c4nnc(C(F)(F)F)[nH]4)ncc32)CC1` [Compound 178, 1-[(2-{[4-({2-[(4-chlorophenyl)methyl]-5-fluoropyrimidin-4-yl}oxy)piperidin-1-yl]methyl}-6-[5-(trifluoromethyl)-4H-1,2,4-triazol-3-yl]-3H-imidazo[4,5-c]pyridin-3-yl)methyl]cyclopropane-1-carbonitrile], the pEC50 was 9.70.
In the case of `N#CC1(Cn2c(CN3CCC(Oc4cccc(Cc5ccc(Cl)cc5F)n4)CC3)nc3cc(-c4nnc(C(F)(F)F)[nH]4)ncc32)CC1` [Compound 179, 1-[(2-{[4-({6-[(4-chloro-2-fluorophenyl)methyl]pyridin-2-yl}oxy)piperidin-1-yl]methyl}-6-[5-(trifluoromethyl)-4H-1,2,4-triazol-3-yl]-3H-imidazo[4,5-c]pyridin-3-yl)methyl]cyclopropane-1-carbonitrile], the pEC50 was 9.31.
The same measure, in the same setting: with `Fc1cc(Cl)ccc1Cc1ncc(F)c(OC2CCN(Cc3nc4cc(-c5nnc(C(F)(F)F)[nH]5)nnc4n3C[C@@H]3CCO3)CC2)n1` [Compound 180a, 2-[(4-chloro-2-fluorophenyl)methyl]-5-fluoro-4-({1-[(7-{[(2S)-oxetan-2-yl]methyl}-3-[5-(trifluoromethyl)-4H-1,2,4-triazol-3-yl]-7H-imidazo[4,5-c]pyridazin-6-yl)methyl]piperidin-4-yl}oxy)pyrimidine] the figure was 9.19; with `Fc1cc(Cl)ccc1Cc1cccc(OC2CCN(Cc3nc4cc(-c5nnc(C(F)(F)F)[nH]5)nnc4n3C[C@@H]3CCO3)CC2)n1` [Compound 181a, 2-[(4-chloro-2-fluorophenyl)methyl]-6-({1-[(7-{[(2S)-oxetan-2-yl]methyl}-3-[5-(trifluoromethyl)-4H-1,2,4-triazol-3-yl]-7H-imidazo[4,5-c]pyridazin-6-yl)methyl]piperidin-4-yl}oxy)pyridine], 9.24; with `Fc1cc(Cl)ccc1Cc1nccc(OC2CCN(Cc3nc4cc(-c5nnc(C(F)(F)F)[nH]5)nnc4n3C[C@@H]3CCO3)CC2)n1` [Compound 182a, 2-[(4-chloro-2-fluorophenyl)methyl]-4-({1-[(7-{[(2S)-oxetan-2-yl]methyl}-3-[5-(trifluoromethyl)-4H-1,2,4-triazol-3-yl]-7H-imidazo[4,5-c]pyridazin-6-yl)methyl]piperidin-4-yl}oxy)pyrimidine], 9.70.
Take `FC1(F)CCN(Cc2cccc(OC3CCN(Cc4nc5cc(-c6nnc(C(F)(F)F)[nH]6)ncc5n4C[C@@H]4CCO4)CC3)n2)CC1` [Compound 184a, 2-[(4,4-difluoropiperidin-1-yl)methyl]-6-({1-[(3-{[(2S)-oxetan-2-yl]methyl}-6-[5-(trifluoromethyl)-4H-1,2,4-triazol-3-yl]-3H-imidazo[4,5-c]pyridin-2-yl)methyl]piperidin-4-yl}oxy)pyridine]: the negative-log EC50 (pEC50) is 7.89.
In the case of `Fc1cc(Cc2cccc(OC3CCN(Cc4nc5cc(-c6nnc(C(F)(F)F)[nH]6)ncc5n4C[C@@H]4CCO4)CC3)n2)ccc1Cl` [Compound 185a, 2-[(4-chloro-3-fluorophenyl)methyl]-6-({1-[(3-{[(2S)-oxetan-2-yl]methyl}-6-[5-(trifluoromethyl)-4H-1,2,4-triazol-3-yl]-3H-imidazo[4,5-c]pyridin-2-yl)methyl]piperidin-4-yl}oxy)pyridine], the pEC50 is 9.43.
The same measure, in the same setting: the value for `FC(F)(F)c1cnn(Cc2cccc(OC3CCN(Cc4nc5cc(-c6nnc(C(F)(F)F)[nH]6)ncc5n4C[C@@H]4CCO4)CC3)n2)c1` [Compound 186a, 2-({1-[(3-{[(2S)-oxetan-2-yl]methyl}-6-[5-(trifluoromethyl)-4H-1,2,4-triazol-3-yl]-3H-imidazo[4,5-c]pyridin-2-yl)methyl]piperidin-4-yl}oxy)-6-{[4-(trifluoromethyl)-1H-pyrazol-1-yl]methyl}pyridine] was 8.36; that for `COc1cncc(-c2cc3nc(CN4CCC(Oc5cccc(Cc6ccc(Cl)cc6F)n5)CC4)n(C[C@@H]4CCO4)c3cn2)n1` [Compound 187a, 2-(2-{[4-({6-[(4-chloro-2-fluorophenyl)methyl]pyridin-2-yl}oxy)piperidin-1-yl]methyl}-3-{[(2S)-oxetan-2-yl]methyl}-3H-imidazo[4,5-c]pyridin-6-yl)-6-methoxypyrazine] was less than 6.52; that for `O=C(O)c1ccc2c(c1)nc(CN1CCC(Oc3cccc(Cc4ccc(Cl)cc4F)n3)CC1)n2C[C@@H]1CCO1` [Compound 188a, 2-{[4-({6-[(4-chloro-2-fluorophenyl)methyl]pyridin-2-yl}oxy)piperidin-1-yl]methyl}-1-{[(2S)-oxetan-2-yl]methyl}-1H-1,3-benzodiazole-5-carboxylic acid] was 7.80.
Still for that read-out and setting: with `N#Cc1ccc(Cc2cccc(OC3CCN(Cc4nc5cc(-c6nnc(C(F)(F)F)[nH]6)ncc5n4C[C@@H]4CCO4)CC3)n2)c(F)c1` [Compound 190a, 3-fluoro-4-{[6-({1-[(3-{[(2S)-oxetan-2-yl]methyl}-6-[5-(trifluoromethyl)-4H-1,2,4-triazol-3-yl]-3H-imidazo[4,5-c]pyridin-2-yl)methyl]piperidin-4-yl}oxy)pyridin-2-yl]methyl}benzonitrile] the figure was 9.62; with `Fc1cc(Cl)ccc1Cc1cccc(OC2CCN(Cc3nc4cc(-c5nnc(C(F)(F)F)[nH]5)ncc4n3C3CCOCC3)CC2)n1` [Compound 191, 2-[(4-chloro-2-fluorophenyl)methyl]-6-[(1-{[3-(oxan-4-yl)-6-[5-(trifluoromethyl)-4H-1,2,4-triazol-3-yl]-3H-imidazo[4,5-c]pyridin-2-yl]methyl}piperidin-4-yl)oxy]pyridine], 7.39.
Same read-out and setting: with `COC1(Cn2c(CN3CCC(Oc4cccc(Cc5ccc(Cl)cc5F)n4)CC3)nc3cc(-c4nnc(C(F)(F)F)[nH]4)ncc32)CC1` [Compound 192, 2-[(4-chloro-2-fluorophenyl)methyl]-6-{[1-({3-[(1-methoxycyclopropyl)methyl]-6-[5-(trifluoromethyl)-4H-1,2,4-triazol-3-yl]-3H-imidazo[4,5-c]pyridin-2-yl}methyl)piperidin-4-yl]oxy}pyridine] the figure was 8.40.
